The source made the active and inactive calls. The calls are words filed in the database; no cut-off is given here.
Legend:
[1] = Solubility of the compound in organis solvent; format: physicochemical
[2] = test system: Cucumis sativus; test: Induction of photobleaching in Cucumis sativus (cucumber) cotyledon disc at 1 to 100 uM incubated for 20 hr in dark followed by 8 hr in presence of light; format: functional
[3] = target: T1, Putative protoporphyrinogen IX oxidase (Cucumis sativus) (UniProt C6L817); test: Inhibition of protoporphyrin oxidase in Cucumis sativus (cucumber) cotyledon disc assessed as light-dependent membrane damage at 100 uM incubated for 20 hr in dark followed by 8 hr in presence of light measured as electrolyte leakage relative to control
T1 sequence (whole entry): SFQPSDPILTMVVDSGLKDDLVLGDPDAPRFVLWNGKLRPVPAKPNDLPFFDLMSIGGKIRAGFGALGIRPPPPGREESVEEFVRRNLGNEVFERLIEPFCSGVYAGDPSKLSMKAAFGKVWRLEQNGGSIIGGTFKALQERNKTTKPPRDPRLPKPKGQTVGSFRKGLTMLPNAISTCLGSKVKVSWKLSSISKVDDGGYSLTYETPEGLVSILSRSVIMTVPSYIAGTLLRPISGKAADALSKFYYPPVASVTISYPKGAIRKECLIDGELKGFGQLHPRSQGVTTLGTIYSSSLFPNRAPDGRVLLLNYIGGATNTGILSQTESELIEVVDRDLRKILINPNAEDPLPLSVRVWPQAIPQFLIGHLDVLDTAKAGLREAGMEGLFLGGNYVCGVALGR

[4] = test system: Oryza sativa; test: Phytotoxicity against Oryza sativa (rice) assessed as injury at 150 g/ha applied as post-emergent treatment at 15 days post-sowing measured after 15 days relative to control; format: organism-based; settings: in vivo, other, 360 h
[5] = test system: Zea mays; test: Phytotoxicity against Zea mays (maize) assessed as injury at 150 g/ha applied as post-emergent treatment at 15 days post-sowing measured after 15 days relative to control; format: organism-based; settings: in vivo, other, 360 h
[6] = test system: Setaria viridis; test: Post-emergence herbicidal activity against Setaria viridis (green foxtail) assessed as injury at 150 g/ha applied at 15 days post-sowing measured after 15 days relative to control; format: functional
[7] = test system: Stellaria media; test: Pre-emergence herbicidal activity against Stellaria media assessed as injury at 50 g/ha applied at 24 hr post-sowing measured after 28 days relative to control; format: functional
[8] = test system: Ipomoea purpurea; test: Pre-emergence herbicidal activity against Ipomoea purpurea (common morning-glory) assessed as injury at 50 g/ha applied at 24 hr post-sowing measured after 28 days relative to control; format: functional
[9] = test system: Galium aparine; test: Pre-emergence herbicidal activity against Galium aparine assessed as injury at 50 g/ha applied at 24 hr post-sowing measured after 28 days relative to control; format: functional
[10] = test system: Ammi majus; test: Pre-emergence herbicidal activity against Amni maius assessed as injury at 50 g/ha applied at 24 hr post-sowing measured after 28 days relative to control; format: functional
[11] = test system: Phalaris arundinacea; test: Pre-emergence herbicidal activity against Phalaris arundinacea assessed as injury at 150 g/ha applied at 24 hr post-sowing measured after 28 days relative to control; format: functional
[12] = test system: Echinochloa crus-galli; test: Pre-emergence herbicidal activity against Echinochloa crus-galli (barnyard grass) assessed as injury at 150 g/ha applied at 24 hr post-sowing measured after 28 days relative to control; format: functional
[13] = test system: Digitaria sanguinalis; test: Pre-emergence herbicidal activity against Digitaria sanguinalis (hairy crabgrass) assessed as injury at 50 g/ha applied at 24 hr post-sowing measured after 28 days relative to control; format: functional
[14] = test system: Ammi majus; test: Post-emergence herbicidal activity against Amni maius assessed as injury at 150 g/ha applied at 15 days post-sowing measured after 15 days relative to control; format: functional
[15] = test system: Abutilon theophrasti; test: Post-emergence herbicidal activity against Abutilon theophrasti (velvetleaf) assessed as injury at 150 g/ha applied at 15 days post-sowing measured after 15 days relative to control; format: functional
[16] = test system: Alopecurus myosuroides; test: Post-emergence herbicidal activity against Alopecurus myosuroides assessed as injury at 150 g/ha applied at 15 days post-sowing measured after 15 days relative to control; format: functional
[17] = test system: Sida spinosa; test: Post-emergence herbicidal activity against Sida spinosa assessed as injury at 150 g/ha applied at 15 days post-sowing measured after 15 days relative to control; format: functional
[18] = test system: Matricaria chamomilla; test: Post-emergence herbicidal activity against Matricaria chamomilla assessed as injury at 150 g/ha applied at 15 days post-sowing measured after 15 days relative to control; format: functional
[19] = test system: Amaranthus retroflexus; test: Post-emergence herbicidal activity against Amaranthus retroflexus assessed as injury at 50 g/ha applied at 15 days post-sowing measured after 15 days relative to control; format: functional
[20] = test system: Gossypium hirsutum; test: Phytotoxicity against Gossypium hirsutum (cotton) assessed as injury at 150 g/ha applied as post-emergent treatment at 15 days post-sowing measured after 15 days relative to control; format: organism-based; settings: in vivo, other, 360 h
[21] = test system: Portulaca oleracea; test: Post-emergence herbicidal activity against Portulaca oleracea assessed as injury at 5 g/ha applied at 15 days post-sowing measured after 15 days relative to control; format: functional
[22] = test system: Avena fatua; test: Pre-emergence herbicidal activity against Avena fatua assessed as injury at 150 g/ha applied at 24 hr post-sowing measured after 28 days relative to control; format: functional
[23] = test system: Veronica persica; test: Pre-emergence herbicidal activity against Veronica persica assessed as injury at 150 g/ha applied at 24 hr post-sowing measured after 28 days relative to control; format: functional
[24] = test system: Stellaria media; test: Pre-emergence herbicidal activity against Stellaria media assessed as injury at 150 g/ha applied at 24 hr post-sowing measured after 28 days relative to control; format: functional
[25] = test system: Ipomoea purpurea; test: Pre-emergence herbicidal activity against Ipomoea purpurea (common morning-glory) assessed as injury at 150 g/ha applied at 24 hr post-sowing measured after 28 days relative to control; format: functional
[26] = test system: Beta vulgaris; test: Phytotoxicity against Beta vulgaris assessed as injury at 50 g/ha applied as post-emergent treatment at 15 days post-sowing measured after 15 days relative to control; format: organism-based; settings: in vivo, other, 360 h
[27] = test system: Glycine max; test: Phytotoxicity against Glycine max (soybean) assessed as injury at 50 g/ha applied as post-emergent treatment at 15 days post-sowing measured after 15 days relative to control; format: organism-based; settings: in vivo, other, 360 h
[28] = test system: Phalaris arundinacea; test: Post-emergence herbicidal activity against Phalaris arundinacea assessed as injury at 50 g/ha applied at 15 days post-sowing measured after 15 days relative to control; format: functional
[29] = test system: Veronica persica; test: Post-emergence herbicidal activity against Veronica persica assessed as injury at 50 g/ha applied at 15 days post-sowing measured after 15 days relative to control; format: functional
[30] = test system: Ipomoea purpurea; test: Post-emergence herbicidal activity against Ipomoea purpurea (common morning-glory) assessed as injury at 50 g/ha applied at 15 days post-sowing measured after 15 days relative to control; format: functional
[31] = test system: Geranium dissectum; test: Post-emergence herbicidal activity against Geranium dissectum assessed as injury at 50 g/ha applied at 15 days post-sowing measured after 15 days relative to control; format: functional
[32] = test system: Galium aparine; test: Post-emergence herbicidal activity against Galium aparine assessed as injury at 50 g/ha applied at 15 days post-sowing measured after 15 days relative to control; format: functional
[33] = test system: Chenopodium album; test: Post-emergence herbicidal activity against Chenopodium album assessed as injury at 50 g/ha applied at 15 days post-sowing measured after 15 days relative to control; format: functional

**Q.** For `C#CCOc1cc(-n2nc(C(C)(C)C)sc2=O)c(Cl)cc1Cl`, which solubility [1] is on record?
**A.** > 250 mg/mL

**Q.** What about the Activity [2] of the same compound?
**A.** inactive

**Q.** And the inhibition [3]?
**A.** 90%

**Q.** What about the Activity [4] of the same compound?
**A.** 0%

**Q.** And the Activity [5]?
**A.** 0%

**Q.** And the Activity [6]?
**A.** 70%

**Q.** And the Activity [7]?
**A.** 0%

**Q.** What about the Activity [8] of the same compound?
**A.** 0%

**Q.** What about the Activity [9] of the same compound?
**A.** 0%

**Q.** What about the Activity [10] of the same compound?
**A.** 0%

**Q.** What about the Activity [11] of the same compound?
**A.** 0%

**Q.** And the Activity [12]?
**A.** 70%

**Q.** And the Activity [13]?
**A.** 70%

**Q.** What about the Activity [14] of the same compound?
**A.** 10%

**Q.** What about the Activity [15] of the same compound?
**A.** 90%

**Q.** What about the Activity [16] of the same compound?
**A.** 70%

**Q.** And the Activity [17]?
**A.** 70%

**Q.** And the Activity [18]?
**A.** 10%

**Q.** And the Activity [19]?
**A.** 50%

**Q.** What about the Activity [20] of the same compound?
**A.** 70%

**Q.** And the Activity [21]?
**A.** 50%

**Q.** What about the Activity [22] of the same compound?
**A.** 0%

**Q.** And the Activity [23]?
**A.** 50%

**Q.** What about the Activity [24] of the same compound?
**A.** 30%

**Q.** What about the Activity [25] of the same compound?
**A.** 0%

**Q.** And the Activity [26]?
**A.** 50%

**Q.** What about the Activity [27] of the same compound?
**A.** 10%

**Q.** And the Activity [28]?
**A.** 30%

**Q.** And the Activity [29]?
**A.** 0%

**Q.** What about the Activity [30] of the same compound?
**A.** 90%

**Q.** And the Activity [31]?
**A.** 50%

**Q.** And the Activity [32]?
**A.** 30%

**Q.** What about the Activity [33] of the same compound?
**A.** 90%

— ChEMBL document CHEMBL3046079, “Synthesis, herbicidal activity, and mode of action of IR 5790” (J Agric Food Chem, 2001)
